According to ChEMBL document CHEMBL5257090, “Modulation of in Vitro SARS-CoV-2 Infection by Stephania tetrandra and Its Alkaloid Constituents” (J Nat Prod, 2023):
The source made the active and inactive calls. The calls are words filed in the database; no cut-off is given here.

Key:
SARS-CoV-2 [1] = test: Antiviral activity against SARS-CoV-2 infected in HEK293T cells expressing ACE2/TMPRSS2 assessed as reduction in virus-induced cytopathic effect at 5 to 10 uM measured after 48 hrs by cellular ATP assay; format: functional, organism-based; settings: Severe acute respiratory syndrome coronavirus 2, dose 5-10 µM
HEK-293T [2] = test: Cytotoxicity against HEK293T cells at 2.5 to 10 uM assessed as reduction in cell viability by CellTiter-Glo assay; format: toxicity, cell-based; settings: human, dose 2.5-10 µM
SARS-CoV-2 [3] = test: Antiviral activity against SARS-CoV-2 infected in HEK293T cells expressing ACE2/TMPRSS2 assessed as reduction in virus-induced cytopathic effect at 2.5 uM measured after 48 hrs by cellular ATP assay; format: functional, Severe acute respiratory syndrome coronavirus 2; set-up: scale not given: the % may be the effect or the level left
SARS-CoV-2 [4] = test: Antiviral activity against SARS-CoV-2 infected in HEK293T cells expressing ACE2/TMPRSS2 assessed as reduction in virus-induced cytopathic effect at 10 uM measured after 48 hrs by cellular ATP assay; format: functional, Severe acute respiratory syndrome coronavirus 2; set-up: scale not given: the % may be the effect or the level left
[5] = Induction of phospholipidosis in African green monkey Vero E6 cells expressing ACE-2/TMPRSS2 at 100 to 300 nM measured after 24 hrs by DAPI staining based fluorescence microscopic analysis; format: toxicity, cell-based; settings: chlorocebus sabaeus, vero c1008, 24 h, 0.3 µM, dose 100-300 nM
[6] = Permeability of the compound in pH 7.4 measured after 5 hrs by LC-MS based PAMPA assay; format: ADME; settings: pH 7.4, 5 h
HEK-293T [7] = test: Downregulation of ORF1ab gene expression in HEK293T cells expressing ACE-2/TMPRSS2 infected with SARS-CoV-2 assessed as fold change preincubated with compound for 2 hrs followed by viral infection and measured after 24 hrs relative to MPV; format: functional, cell-based; settings: Homo sapiens, time 26.0 hrs
SARS-CoV-2 [8] = test: Antiviral activity against wild-type SARS-CoV-2 USA-WA1/2020 NR-52281 infected in African green monkey Vero E6 cells expressing ACE-2/TMPRSS2 assessed as reduction in virus-induced cytopathic effect at 0.31 to 2.5 uM measured after 48 hrs by cellular ATP assay; format: functional, organism-based; settings: Severe acute respiratory syndrome coronavirus 2, dose 0.31-2.5 µM
SARS-CoV-2 [9] = test: Antiviral activity against SARS-CoV-2 delta infected in African green monkey Vero E6 cells expressing ACE-2/TMPRSS2 assessed as reduction in virus-induced cytopathic effect at 0.31 to 2.5 uM measured after 48 hrs by cellular ATP assay; format: functional, organism-based; settings: Severe acute respiratory syndrome coronavirus 2, dose 0.31-2.5 µM
[10] = Induction of phospholipidosis in HEK293T cells expressing ACE-2/TMPRSS2 at 100 to 300 nM measured after 24 hrs by DAPI staining based fluorescence microscopic analysis; format: toxicity, cell-based; settings: human, hek-293t, 0.3 µM, dose 100-300 nM
SARS-CoV-2 [11] = test: Antiviral activity against SARS-CoV-2 infected in HEK293T cells expressing ACE2/TMPRSS2 assessed as reduction in virus-induced cytopathic effect measured after 48 hrs by cellular ATP assay; format: functional, organism-based; settings: Severe acute respiratory syndrome coronavirus 2, HEK-293T
[12] = Cytotoxicity against HEK293T cells assessed as reduction in cell viability by CellTiter-Glo assay; format: toxicity, cell-based, HEK-293T; settings: human
[13] = Induction of phospholipidosis in HEK293T cells expressing ACE-2/TMPRSS2 at 1 uM measured after 24 hrs by DAPI staining based fluorescence microscopic analysis; format: toxicity, cell-based; settings: human, hek-293t
HEK-293T [14] = test: Up-regulation of leukocyte proliferation genes in HEK293T cells expressing ACE-2/TMPRSS2 infected with SARS-CoV-2 preincubated with compound for 2 hrs followed by viral infection and measured after 24 hrs by gene ontology analysis; format: functional, cell-based; settings: Homo sapiens, time 26.0 hrs
HEK-293T [15] = test: Cytotoxicity against HEK293T cells at 0.1 uM assessed as reduction in cell viability by CellTiter-Glo assay; format: toxicity, cell-based; settings: human
HEK-293T [16] = test: Cytotoxicity against HEK293T cells at 10 uM assessed as reduction in cell viability by CellTiter-Glo assay; format: toxicity, cell-based; settings: human
HEK-293T [17] = test: Downregulation of viral nucleocapsid N gene expression in HEK293T cells expressing ACE-2/TMPRSS2 infected with SARS-CoV-2 assessed as fold change preincubated with compound for 2 hrs followed by viral infection and measured after 24 hrs relative to MPV; format: functional, cell-based; settings: Homo sapiens, time 26.0 hrs

CN1[C@@H](CC(=O)c2ccccc2)CCC[C@H]1C[C@H](O)c1ccccc1
Activity (SARS-CoV-2 [1]): inactive

CN(C)C(=O)COC(=O)Cc1ccc(OC(=O)c2ccc(NC(=N)N)cc2)cc1 [CAMOSTAT]
Activity (HEK-293T [2]): Non-Toxic
Activity (SARS-CoV-2 [3]): 23%
Activity (SARS-CoV-2 [4]): 54.5%

COc1ccc2cc1Oc1ccc(cc1)C[C@H]1c3c(cc4c(c3Oc3cc5c(cc3OC)CCN(C)[C@@H]5C2)OCO4)CCN1C [CEPHARANTHINE]
Activity [5]: Non-Toxic
permeability [6]: Permeable
Activity (HEK-293T [7]): Active
Activity (SARS-CoV-2 [8]): inactive
Activity (SARS-CoV-2 [9]): Active
Activity [10]: Non-Toxic
IC50 (SARS-CoV-2 [11]): 143 nM
CC50 [12]: 2100 nM
Activity [13]: Toxic

COc1ccc2cc1Oc1ccc(cc1)C[C@H]1c3cc(c(OC)cc3CCN1C)Oc1c(O)c(OC)cc3c1[C@H](C2)N(C)CC3 [FANGCHINOLINE]
Activity [5]: Non-Toxic
Activity (HEK-293T [7]): Active
Activity (SARS-CoV-2 [8]): inactive
Activity [10]: Non-Toxic
IC50 (SARS-CoV-2 [11]): 193 nM
Activity (HEK-293T [14]): Active
CC50 [12]: > 1000 nM
Activity [13]: Toxic

O=c1cc(-c2ccccc2)oc2cc(O)c(O)c(O)c12 [BAICALEIN]
IC50 (SARS-CoV-2 [11]): 5100 nM

CCC(CC)COC(=O)[C@H](C)N[P@](=O)(OC[C@H]1O[C@@](C#N)(c2ccc3c(N)ncnn23)[C@H](O)[C@@H]1O)Oc1ccccc1
Activity (HEK-293T [15]): Non-Toxic
Activity (HEK-293T [16]): Toxic

O=C(O)[C@H]1O[C@@H](Oc2cc3oc(-c4ccccc4)cc(=O)c3c(O)c2O)[C@H](O)[C@@H](O)[C@@H]1O
Activity (SARS-CoV-2 [1]): inactive

COc1ccc2cc1Oc1ccc(cc1)C[C@H]1c3cc(c(OC)cc3CCN1C)Oc1c(OC)c(OC)cc3c1[C@H](C2)N(C)CC3 [FANCHININ]
Activity [5]: Non-Toxic
permeability [6]: Permeable
Activity (HEK-293T [17]): Active
Activity (HEK-293T [7]): Active
Activity (SARS-CoV-2 [8]): inactive
Activity [10]: Non-Toxic
IC50 (SARS-CoV-2 [11]): 284 nM
Activity (HEK-293T [14]): Active
CC50 [12]: > 1000 nM
Activity [13]: Toxic
